Data published in paper PMC9386376, “Discovery of spirooxindole-derived small-molecule compounds as novel HDAC/MDM2 dual inhibitors and investigation of their anticancer activity” (Frontiers in Oncology, 2022).

Experiments:
HDAC1 = HDAC1 (Homo sapiens, UniProt Q13547); assay: HTRF enzyme inhibition assay, HDAC1; conditions: read-out: % enzyme inhibition HDAC
GST-tagged MDM2 = molecular target: T1, GST-tagged MDM2 (Homo sapiens, UniProt Q00987); assay: HTRF enzyme inhibition assay, MDM2; assay type: biochemical; conditions: compound at 1 μM
T1 construct: purchased Cisbio Co. Ltd
T1 sequence (Q00987 whole entry): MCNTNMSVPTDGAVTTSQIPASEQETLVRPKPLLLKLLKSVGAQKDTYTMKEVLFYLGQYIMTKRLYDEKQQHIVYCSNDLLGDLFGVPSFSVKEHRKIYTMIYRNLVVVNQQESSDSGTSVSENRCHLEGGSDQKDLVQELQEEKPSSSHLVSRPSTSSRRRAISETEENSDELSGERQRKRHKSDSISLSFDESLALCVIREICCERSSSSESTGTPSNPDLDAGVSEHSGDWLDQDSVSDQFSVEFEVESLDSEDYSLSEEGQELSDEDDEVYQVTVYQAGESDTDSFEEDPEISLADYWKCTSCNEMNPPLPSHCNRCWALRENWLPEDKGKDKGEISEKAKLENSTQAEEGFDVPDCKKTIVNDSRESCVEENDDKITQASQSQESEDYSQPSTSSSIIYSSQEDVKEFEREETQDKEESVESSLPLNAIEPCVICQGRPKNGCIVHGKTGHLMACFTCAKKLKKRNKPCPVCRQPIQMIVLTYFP
Description: The enzymatic assay of test compounds is using the HTRF-based method provided by Cisbio Co. Ltd. In brief, the target compounds to be tested were prepared into samples with a concentration of 1 μM, which was added to GST-tagged MDM2 and HDAC1 proteins, respectively, then biotinylated substrate p53 peptide and HTRF detection reagents were added. The data obtained were processed by the ratio method, and the inhibition rates of MDM2 and HDAC1 were calculated. The detailed experimental procedures are according to the manufacturer’s protocols.

Chain of HDAC1 (Q13547 whole entry): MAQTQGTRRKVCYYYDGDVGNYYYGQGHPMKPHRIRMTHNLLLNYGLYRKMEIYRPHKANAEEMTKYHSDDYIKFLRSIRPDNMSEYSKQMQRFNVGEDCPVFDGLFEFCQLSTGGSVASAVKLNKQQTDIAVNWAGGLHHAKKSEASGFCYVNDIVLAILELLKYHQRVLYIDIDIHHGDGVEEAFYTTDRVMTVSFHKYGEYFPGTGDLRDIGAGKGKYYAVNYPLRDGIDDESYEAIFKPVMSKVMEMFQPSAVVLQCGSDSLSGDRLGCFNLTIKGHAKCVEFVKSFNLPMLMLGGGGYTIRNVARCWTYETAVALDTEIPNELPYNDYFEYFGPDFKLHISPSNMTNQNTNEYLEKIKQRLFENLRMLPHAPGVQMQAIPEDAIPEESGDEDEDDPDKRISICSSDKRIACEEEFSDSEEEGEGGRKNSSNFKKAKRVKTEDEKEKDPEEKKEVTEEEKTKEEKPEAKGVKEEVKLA

Row | Structure (SMILES) | inhibition at 1 µM (HDAC1) [%] | melting point [°C] | inhibition at 1 µM (GST-tagged MDM2) [%]
1 | O=C(CCCCCCC(=O)Nc1ccc([C@@H]2[C@H]3CSCN3[C@]3(C(=O)Nc4cc(Br)ccc43)[C@H]2C(=O)c2ccccc2)cc1)NO [7g, N^1-(4-((3R,6'S,7'R,7a'S)-6'-benzoyl-6-bromo-2-oxo-1',6',7',7a'-tetrahydro-3'H-spiro[indoline-3,5'-pyrrolo[1,2-c]thiazol]-7'-yl)phenyl)-N^8-hydroxyoctanediamide] | 68 | 149.8 to 152.1 | 59
2 | Cc1cccc2c1NC(=O)[C@@]21[C@@H](C(=O)c2ccccc2)[C@H](c2ccc(NC(=O)CCCCCCC(=O)NO)cc2)[C@H]2CSCN21 [7h, N^1-(4-((3R,6'S,7'R,7a'S)-6'-benzoyl-7-methyl-2-oxo-1',6',7',7a'-tetrahydro-3'H-spiro[indoline-3,5'-pyrrolo[1,2-c]thiazol]-7'-yl)phenyl)-N^8-hydroxyoctanediamide] | 71 | 142.7 to 143.9 | 23
3 | O=C(CCCCCCC(=O)Nc1ccc([C@@H]2[C@H]3CSCN3[C@]3(C(=O)Nc4c(Br)cccc43)[C@H]2C(=O)c2ccccc2)cc1)NO [7i, N^1-(4-((3R,6'S,7'R,7a'S)-6'-benzoyl-7-bromo-2-oxo-1',6',7',7a'-tetrahydro-3'H-spiro[indoline-3,5'-pyrrolo[1,2-c]thiazol]-7'-yl)phenyl)-N^8-hydroxyoctanediamide] | 67 | 137.5 to 138.9 | 30
4 | COc1ccc2c(c1)[C@@]1(C(=O)N2)[C@@H](C(=O)c2ccccc2)[C@H](c2ccc(NC(=O)CCCCCCC(=O)NO)cc2)[C@H]2CSCN21 [7j, N^1-(4-((3R,6'S,7'R,7a'S)-6'-benzoyl-5-methoxy-2-oxo-1',6',7',7a'-tetrahydro-3'H-spiro[indoline-3,5'-pyrrolo[1,2-c]thiazol]-7'-yl)phenyl)-N^8-hydroxyoctanediamide] | 70 | 134.9 to 136.2 | 50
5 | COc1cccc(C(=O)[C@H]2[C@H](c3ccc(NC(=O)CCCCCCC(=O)NO)cc3)[C@H]3CSCN3[C@]23C(=O)Nc2ccccc23)c1 [7l, N^1-hydroxy-N^8-(4-((3R,6'S,7'R,7a'S)-6'-(3-methoxybenzoyl)-2-oxo-1',6',7',7a'-tetrahydro-3'H-spiro[indoline-3,5'-pyrrolo[1,2-c]thiazol]-7'-yl)phenyl)octanediamide] | 62 | 121.6 to 122.8 | 44
6 | CN(C)c1ccc(C(=O)[C@H]2[C@H](c3ccc(NC(=O)CCCCCCC(=O)NO)cc3)[C@H]3CSCN3[C@]23C(=O)Nc2ccccc23)cc1 [7m, N^1-(4-((3R,6'S,7'R,7a'S)-6'-(4-(dimethylamino)benzoyl)-2-oxo-1',6',7',7a'-tetrahydro-3'H-spiro[indoline-3,5'-pyrrolo[1,2-c]thiazol]-7'-yl)phenyl)-N^8-hydroxyoctanediamide] | 68 | 148.7 to 150 | 40
7 | O=C(CCCCCCC(=O)Nc1ccc([C@@H]2[C@H]3CSCN3[C@]3(C(=O)Nc4ccccc43)[C@H]2C(=O)c2cccc(Br)c2)cc1)NO [7n, N^1-(4-((3R,6'S,7'R,7a'S)-6'-(3-bromobenzoyl)-2-oxo-1',6',7',7a'-tetrahydro-3'H-spiro[indoline-3,5'-pyrrolo[1,2-c]thiazol]-7'-yl)phenyl)-N^8-hydroxyoctanediamide] | 69 | 120.2 to 121.5 | 43
8 | O=C(CCC(=O)Nc1ccc([C@@H]2[C@H]3CSCN3[C@]3(C(=O)Nc4ccccc43)[C@H]2C(=O)c2ccccc2)cc1)NO [7o, N^1-(4-((3R,6'S,7'R,7a'S)-6'-benzoyl-2-oxo-1',6',7',7a'-tetrahydro-3'H-spiro[indoline-3,5'-pyrrolo[1,2-c]thiazol]-7'-yl)phenyl)-N^4-hydroxysuccinamide] | 54 | 145.1 to 146.3 | 43
9 | O=C(CCCCC(=O)Nc1ccc([C@@H]2[C@H]3CSCN3[C@]3(C(=O)Nc4ccccc43)[C@H]2C(=O)c2ccccc2)cc1)NO [7p, N^1-(4-((3R,6'S,7'R,7a'S)-6'-benzoyl-2-oxo-1',6',7',7a'-tetrahydro-3'H-spiro[indoline-3,5'-pyrrolo[1,2-c]thiazol]-7'-yl)phenyl)-N^6-hydroxyadipamide] | 60 | 140.3 to 141.7 | 44
10 | O=C(CCCCCCCCC(=O)Nc1ccc([C@@H]2[C@H]3CSCN3[C@]3(C(=O)Nc4ccccc43)[C@H]2C(=O)c2ccccc2)cc1)NO [7q, N^1-(4-((3R,6'S,7'R,7a'S)-6'-benzoyl-2-oxo-1',6',7',7a'-tetrahydro-3'H-spiro[indoline-3,5'-pyrrolo[1,2-c]thiazol]-7'-yl)phenyl)-N^10-hydroxydecanediamide] | 71 | 131.9 to 132.1 | 42
11 | O=C(CCCCC(=O)Nc1ccc([C@@H]2[C@H]3CSCN3[C@]3(C(=O)Nc4cc(Cl)ccc43)[C@H]2C(=O)c2ccccc2)cc1)NO [7r, N^1-(4-((3R,6'S,7'R,7a'S)-6'-benzoyl-6-chloro-2-oxo-1',6',7',7a'-tetrahydro-3'H-spiro[indoline-3,5'-pyrrolo[1,2-c]thiazol]-7'-yl)phenyl)-N^6-hydroxyadipamide] | 55 | 160.6 to 161.9 | 61
12 | O=C(CCCCCCCCC(=O)Nc1ccc([C@@H]2[C@H]3CSCN3[C@]3(C(=O)Nc4cc(Cl)ccc43)[C@H]2C(=O)c2ccccc2)cc1)NO [7s, N^1-(4-((3R,6'S,7'R,7a'S)-6'-benzoyl-6-chloro-2-oxo-1',6',7',7a'-tetrahydro-3'H-spiro[indoline-3,5'-pyrrolo[1,2-c]thiazol]-7'-yl)phenyl)-N^10-hydroxydecanediamide] | 68 | 137.7 to 139 | 59
13 | O=C(CCCCCCC(=O)Nc1ccc([C@@H]2[C@H]3CCCN3[C@]3(C(=O)Nc4cc(Cl)ccc43)[C@H]2C(=O)c2ccccc2)cc1)NO [7t, N^1-(4-((1'R,2'S,3R,7a'R)-2'-benzoyl-6-chloro-2-oxo-1',2',5',6',7',7a'-hexahydrospiro[indoline-3,3'-pyrrolizin]-1'-yl)phenyl)-N^8-hydroxyoctanediamide] | 61 | 143.4 to 144.5 | 61
14 | O=C(CCCCC(=O)Nc1ccc(C(=O)Nc2ccc([C@@H]3[C@H]4CSCN4[C@]4(C(=O)Nc5cc(Cl)ccc54)[C@H]3C(=O)c3ccccc3)cc2)cc1)NO [7v, N^1-(4-((4-((3R,6'S,7'R,7a'S)-6'-benzoyl-6-chloro-2-oxo-1',6',7',7a'-tetrahydro-3'H-spiro[indoline-3,5'-pyrrolo[1,2-c]thiazol]-7'-yl)phenyl)carbamoyl)phenyl)-N^6-hydroxyadipamide] | 53 | 175.5 to 176.6 | 58
15 | Nc1ccccc1NC(=O)CCC(=O)Nc1ccc([C@@H]2[C@H]3CSCN3[C@]3(C(=O)Nc4ccccc43)[C@H]2C(=O)c2ccccc2)cc1 [9a, N^1-(2-aminophenyl)-N^4-(4-((3R,6'S,7'R,7a'S)-6'-benzoyl-2-oxo-1',6',7',7a'-tetrahydro-3'H-spiro[indoline-3,5'-pyrrolo[1,2-c]thiazol]-7'-yl)phenyl)succinamide] | 37 | 149.1 to 150.2 | 50
16 | Nc1ccccc1NC(=O)CCCCCCC(=O)Nc1ccc([C@@H]2[C@H]3CSCN3[C@]3(C(=O)Nc4ccccc43)[C@H]2C(=O)c2ccccc2)cc1 [9b, N^1-(2-aminophenyl)-N^8-(4-((3R,6'S,7'R,7a'S)-6'-benzoyl-2-oxo-1',6',7',7a'-tetrahydro-3'H-spiro[indoline-3,5'-pyrrolo[1,2-c]thiazol]-7'-yl)phenyl)octanediamide] | 45 | 131.7 to 132.9 | 45
17 | Nc1ccccc1NC(=O)CCCCC(=O)Nc1ccc([C@@H]2[C@H]3CSCN3[C@]3(C(=O)Nc4cc(Cl)ccc43)[C@H]2C(=O)c2ccccc2)cc1 [9c, N^1-(2-aminophenyl)-N^6-(4-((3R,6'S,7'R,7a'S)-6'-benzoyl-6-chloro-2-oxo-1',6',7',7a'-tetrahydro-3'H-spiro[indoline-3,5'-pyrrolo[1,2-c]thiazol]-7'-yl)phenyl)adipamide] | 40 | 148.9 to 150 | 57
18 | Nc1ccccc1NC(=O)CCCCCCC(=O)Nc1ccc([C@@H]2[C@H]3CSCN3[C@]3(C(=O)Nc4cc(Cl)ccc43)[C@H]2C(=O)c2ccccc2)cc1 [9d, N^1-(2-aminophenyl)-N^8-(4-((3R,6'S,7'R,7a'S)-6'-benzoyl-6-chloro-2-oxo-1',6',7',7a'-tetrahydro-3'H-spiro[indoline-3,5'-pyrrolo[1,2-c]thiazol]-7'-yl)phenyl)octanediamide] | 55 | 145.2 to 146.4 | 56
19 | Nc1ccccc1NC(=O)CCCCCCCCC(=O)Nc1ccc([C@@H]2[C@H]3CSCN3[C@]3(C(=O)Nc4cc(Cl)ccc43)[C@H]2C(=O)c2ccccc2)cc1 [9e, N^1-(2-aminophenyl)-N^10-(4-((3R,6'S,7'R,7a'S)-6'-benzoyl-6-chloro-2-oxo-1',6',7',7a'-tetrahydro-3'H-spiro[indoline-3,5'-pyrrolo[1,2-c]thiazol]-7'-yl)phenyl)decanediamide] | 47 | 132.4 to 133.9 | 56
